Values quoted from earlier work as cited in patent US11666623B2, “Tetramaleimide linkers and use thereof” (NewBio Therapeutics, Inc., priority 2017, dated 2023).

System: human carcinoma lines
Settings: cited from earlier work

COc1cccc2c1C(=O)c1c(O)c3c(c(O)c1C2=O)C[C@@](O)(C(=O)CO)C[C@@H]3O[C@H]1C[C@H](N)[C@H](O)[C@H](C)O1 [doxorubicin, Doxorubicin]
IC50: 100 to 200 nM
